{"source": "patent US20050032111A1", "about": "“Cadherin-11 as an indicator of viable pregnancy” (priority 1997, published 2005)", "key": {"[1]": {"system": "cad-11 protein", "test": "Western blot analysis of cad-11 protein in cultured endometrial stromal cells", "format": "cell-based, human", "conditions": "for cad-11 protein expression levels over time: Example 4C, P4 1 μM, E2 30 nM, DHT 0.1 μM, 0-96 h, P4 effect continued to increase until 86 h [sic]", "method": "(§1) Endometrial stroma cells were isolated from secretory endometrium as described above. The stroma cells were grown to confluence, washed with PBS, and cultured in DMEM containing charcoal stripped FCS for a further 24 h. The culture medium was removed, and after the cells had been washed twice with PBS, replaced with fresh DMEM containing charcoal stripped FCS. The cells were harvested for either Northern (see Example 5) or Western blot analysis (see Example 6) after 24 h of culture in the presence or absence of steroids in the culture medium P4 (0.1-1 μM), E2 (30 nm), or vehicle (0.1% ethanol).\n(§2) Endometrial stromal cells were separated from the glandular epithelium by enzymatic digestion and mechanical dissociation as described above. The endometrial stromal cells were washed once in phenol red-free Dulbecco'e Modified Eagle's medium (DMEM) containing 10% charcoal-stripped fetal bovine serum (FBS) before being resuspended and plated in DMEM containing 25 mM glucose, […] L-glutamine, antibiotics (100 U/ml penicillin, 100 μg/ml streptomycin and 2.5 μg/ml fungizone), and supplemented with 30% charcoal-stripped FBS. The culture medium was replaced 30 min after plating in order to reduce epithelial cell contamination. The purity of the cell cultures was determined by immunocytochemical staining for vimentin, cytokeratin, muscle actin, and factor VIII.\n(§3) The stromal cells (passage 2) were grown to confluence, washed with PBS, and cultured in phenol, red-free DMEM supplemented with 10% charcoal-stripped FBS is and containing either progesterone (P4 1 μM), 17β-estradiol (E2, 30 nM), the non-aromatisable androgen dihydrotestosterone (DHT, 0.1 μM) or vehicle (0.1% ethanol). The cells were cultured in the presence or absence of the steroids for 0, 6, 12, 24, 48, 72 or 96 h before being harvested for Northern or Western blot analysis as described in Examples 5 and 6 using the probe described in Example 4A.\n(§4) To determine whether a combination of steroids was required for maximal cad-11 expression in endometrial stromal cells, the cells (prepared as described above) were cultured in the presence of P4 (1 μM) plus E2 (30 nM), or P4 (1 μM) plus DHT (0.1 μM) for 0, 6, 12, 24, 48, 72 or 96 h before being harvested for Northern or Western blot analysis as described above.\n(§5) To determine whether the ability of E2 to potentiate the effects of P4 on stromal cad-11 expression was dose-dependent, the cells were cultured in the presence of vehicle (0.1% ethanol), E2 (30 nM), P4 (1 μM) or P4 (1 μM) plus varying doses of E2 ([…]) for 96 h. 30 nM is approximately equivalent to physiological levels. The cells were then harvested for Northern and Western blot analysis using the procedures described above.\nCell cultures were rinsed three times with PBS and drained. The cells were incubated in 100 μl of cell lysis buffer (Tris HCL, pH 7.5 containing 0.5 NP-40, 0.5 mM CaCl2, and 1.0 mM PMSF) at 4° C. for 30 min on a rocking platform. Cell lysates were collected by scraping plate with a plastic spatula. The cell lysates were centrifuged at 10,000 xg for 20 min, and the supernatant was used in the Western Blot analyses or stored at −70° C. Aliquots from the samples were subjected to SDS polyacrylamide gel electrophoresis under reducing conditions. The stacking gels contained 5% acrylamide, and the separating gels were composed of 7.5% acrylamide. The proteins were electrophoretically transferred from the gels onto nitrocellulose membrane. The nitrocellulose blots were probed with the mouse monoclonal antibody (C11-113H) directed against human cad-11 (from ICOS Corporation, Bothell, Wash.) produced as described in Example 10 below. The Amersham ECL™ system was used to detect antibody bound to antigen."}, "[2]": {"system": "cad-11 in the endometrium", "test": "Cad-11 immunostaining (HSCORE) of endometrial biopsies after treatment", "format": "in vivo, human", "conditions": "for AFTER TREATMENT (HSCORE), cad-11 expression in the endometrium: women with primary habitual abortion and LPD, one line per patient 1-8; for effect of treatment on endometrial cad-11 expression: women with LPD-associated habitual abortion, degree of response variable", "method": "The intensity of cad-11 immunostaining in the endometrial biopsies may be determined by the semiquantitative HSCORE technique which is routinely used in oncology for cancer cell counts. The HSCORE is a continuous value (from 0-4, respectively), in which a discriminatory level that designates positives and negatives for the test is determined. Typically, a consensus is made between counts carried out by two observers in a blinded fashion employing a double-headed microscope at low and high magnification.\n(§6) The presence of cad-11 was examined in endometrial biopsies obtained from women presenting with primary (no prior live birth) habitual abortion in association with luteal phase deficiency (LPD). This group of women, who account for approximately 20% of the women attending the Recurrent Pregnancy Loss Clinic, B.C. Women's Hospital and Health Centre, University of British Columbia, Vancouver, Canada, are routinely treated with progesterone or clomiphene citrate (a nonsteroidal synthetic compound). Biopsy specimens were obtained from these women before and after treatment. Cad-11 expression/production was correlated with pregnancy outcome upon treatment. Present treatment of LPD consists of either vaginal progesterone suppositories or clomiphene citrate, with the dosage being adjusted until a repeat endometrial biopsy is considered to be “in phase” by morphological assessment.\nLPD was diagnosed by traditional methods prior to determining cad-11 by immunostaining. To increase the likelihood of including only those individuals with authentic LPD, the criteria for inclusion in this study was two consecutive biopsies with a 3 days of maturation delay based on the first day of the next menses as determined by morphological assessment.\nIn 16 such patients, cad-11 immunostaining was examined in biopsies obtained before and after treatment with either progesterone (results shown in Table 1A) or clomiphene citrate (results shown in Table 1B). All 16 had return of normal in-phase morphology on subsequent biopsy. The endometrial biopsy specimens were then re-evaluated for cad-11 using immunohistochemical staining. Comparison of staining pattern and intensity was performed using a monoclonal antibody directed against human cadherin-11 and standard immunohistochemical techniques according to the protocol set out in Example 3. The intensity of cad-11 immunostaining in the endometrial biopsies was determined by the semiquantitative HSCORE technique as described above.\nFor Detection of Cad-11 in Endometrial Biopsy Specimens • Prepare diluent fresh 1% bovine serum albumin (BSA; Sigma Chem Co.)/1% Automation Buffer (AB; ESBE Lab.) (wt/vol).\nFor paraffin embedded endometrial biopsy specimen sections (5 μm): • 1. Wash tissue specimen thoroughly in phosphate-buffered saline (PBS). • 2. […]"}, "[3]": {"system": "cad-11 mRNA", "test": "Northern blot analysis of cad-11 mRNA in cultured endometrial stromal cells", "format": "cell-based, human", "conditions": "for cad-11 mRNA levels: Example 4B, 24 h culture, P4 0.1-1 μM, E2 30 nm; for stromal cad-11 mRNA levels over time: Example 4C, P4 1 μM, E2 30 nM, DHT 0.1 μM, 0-96 h, P4 effect continued to increase until 96 h", "method": "as §1, §2, §3\nTo standardise the amounts of total RNA, the blots were also probed with a radiolabelled synthetic oligonucleotide specific for 18S rRNA. Radioautograms were scanned using an LKB laser densitometer. The absorbance values obtained for the cad-11 transcripts were normalised relative to the 18S rDNA absorbance value. Statistical differences between time points and treatments were assessed by the analysis of variance (ANOVA). Differences were considered to be significant for p <0.05.\nas §4, §5\nRNA Extraction using an RNAID™ kit (BIO 101, Inc.): • 1. 500 μl cell solution+500 μl of 2M sodium acetate (pH 4.0). • 2. Vortex. • 3. Add 525 μl of chloroform/isoamyl alcohol. • 4. Vortex. • 5. Incubate on ice for 15 minutes. • 6. Spin at 4° C./10,000×g for 20 minutes. • 7. Transfer top phase (RNA rich portion) to a new vial, taking care not to touch the interface and bottom organic solvent part. • 8. Add ½ volume of chloroform/isoamyl alcohol. • 9. Vortex. • 10. Spin 2 min at 4° C./10,000×g. • 11. Transfer top phase to a new tube. • 12. Add 20 μl of RNA Matrix. • 13. Vortex 30 sec. • […]."}, "[4]": {"system": "women presenting with primary habitual abortion and diagnosed with luteal phase deficiency", "test": "Pregnancy outcome upon treatment", "format": "in vivo, human", "conditions": "one line per patient 1-8", "excerpt": "as §6\nHowever, different intensities of cad-11 immunostaining in the epithelial and stromal component of the endometrium observed in this cohort of women (HSCORES=0-4: Tables 1A and 1B). […] Conversely, a negative HSCORE (0-1) following treatment correlated with a subsequent pregnancy loss (spontaneous abortion)."}, "[5]": {"conditions": "Example 4F, cultured endometrial stromal cells"}, "[6]": {"conditions": "Treatment: Progesterone Suppositories"}, "[7]": {"conditions": "Example 4E, P4 1 μM plus E2 0.5-100 nM, 96 h"}, "[8]": {"conditions": "Example 4E, with P4 1 μM, 96 h, versus 30 nM E2"}}, "note": "Where “and” joins values, the source holds several entries; their conditions need not be identical. Equal entries are not always repeated. Entries after “also recorded” stand apart in the source; their conditions may differ. Structures can show the parent of a compound that is named as a salt.", "data": [{"smiles": "CC(=O)[C@H]1CC[C@H]2[C@@H]3CCC4=CC(=O)CC[C@]4(C)[C@H]3CC[C@]12C", "note": "[progesterone]", "values": [{"measurement": "stromal cad-11 protein", "setting": "[1]; Example 4B, 24 h culture, P4 0.1-1 μM", "value": "induced an increase in stromal cad-11 protein"}, {"measurement": "cad-11 protein expression levels over time", "setting": "[1]", "value": "increase in cad-11 expression after 24 h"}, {"measurement": "regulation of cad-11 protein expression by steroid alone", "setting": "[1]; [5]", "value": "increased cad-11 expression"}, {"measurement": "AFTER TREATMENT (HSCORE), cad-11 expression in the endometrium", "setting": "[2]; [6]", "value": "3 (positive) HSCORE (2×) and 4 (positive) HSCORE (2×) and 2 (equivocal) HSCORE and 1 (negative) HSCORE (2×) and 0 (negative) HSCORE"}, {"measurement": "effect of treatment on endometrial cad-11 expression", "setting": "[2]", "value": "capable of increasing endometrial cad-11 expression"}, {"measurement": "cad-11 mRNA levels", "setting": "[3]", "value": "increased cad-11 mRNA levels in a dose-dependent manner"}, {"measurement": "stromal cad-11 mRNA levels over time", "setting": "[3]", "value": "significant increase in the stromal cad-11 mRNA levels after 24 h"}, {"measurement": "regulation of cad-11 mRNA expression by steroid alone", "setting": "[3]; [5]", "value": "increased cad-11 expression"}, {"measurement": "PREGNANCY OUTCOME", "setting": "[4]; [6]", "value": "successful; also recorded: spontaneous"}]}, {"smiles": "CC(=O)[C@H]1CC[C@H]2[C@@H]3CC=C4C[C@@H](O)CC[C@]4(C)[C@H]3CC[C@]12C", "note": "[Pregnenolone]", "values": [{"measurement": "regulation of cad-11 protein expression by steroid alone", "setting": "[1]; [5]", "value": "increased cad-11 expression"}, {"measurement": "regulation of cad-11 mRNA expression by steroid alone", "setting": "[3]; [5]", "value": "increased cad-11 expression"}]}, {"smiles": "C[C@]12CCC(=O)C[C@@H]1CC[C@@H]1[C@@H]2CC[C@]2(C)[C@@H](O)CC[C@@H]12", "note": "[DHT, dihydrotestosterone]", "values": [{"measurement": "cad-11 protein expression levels over time", "setting": "[1]", "value": "No significant increase in cad-11 expression levels"}, {"measurement": "stromal cad-11 mRNA levels over time", "setting": "[3]", "value": "did not significantly increase cad-11 mRNA levels"}]}, {"smiles": "CC(=O)O[C@]1(C(C)=O)CC[C@H]2[C@@H]3C[C@H](C)C4=CC(=O)CC[C@]4(C)[C@H]3CC[C@@]21C", "note": "[medroxyprogesterone acetate]", "values": [{"measurement": "regulation of cad-11 protein expression by steroid alone", "setting": "[1]; [5]", "value": "increased cad-11 expression"}, {"measurement": "regulation of cad-11 mRNA expression by steroid alone", "setting": "[3]; [5]", "value": "increased cad-11 expression"}]}, {"smiles": "C[C@]12CC[C@@H]3c4ccc(O)cc4CC[C@H]3[C@@H]1CC[C@@H]2O", "note": "[E2, 17β-estradiol]", "values": [{"measurement": "cad-11 protein expression levels over time", "setting": "[1]", "value": "No significant increase in cad-11 expression levels"}, {"measurement": "potentiation of P4-mediated increase in stromal cad-11 protein by increasing doses of E2", "setting": "[1]; [7]", "value": "progressively enhanced the effects of P4"}, {"measurement": "E2 concentration at which maximum cad-11 protein expression level was observed", "setting": "[1]; Example 4E, with P4 1 μM, 96 h", "value": 30, "unit": "nM"}, {"measurement": "enhancement of stromal cad-11 protein when E2 was increased to 100 nM", "setting": "[1]; [8]", "value": "no further enhancement"}, {"measurement": "potentiation of the progestin-mediated increase in cad-11 protein", "setting": "[1]; [5]", "value": "potentiate this effect"}, {"measurement": "cad-11 mRNA levels", "setting": "[3]", "value": "little effect on cad-11 mRNA levels"}, {"measurement": "stromal cad-11 mRNA levels over time", "setting": "[3]", "value": "did not significantly increase cad-11 mRNA levels"}, {"measurement": "potentiation of P4-mediated increase in stromal cad-11 mRNA by increasing doses of E2", "setting": "[3]; [7]", "value": "progressively enhanced the effects of P4"}, {"measurement": "E2 concentration at which maximum cad-11 mRNA expression level was observed", "setting": "[3]; Example 4E, with P4 1 μM, 96 h", "value": 30, "unit": "nM"}, {"measurement": "enhancement of stromal cad-11 mRNA when E2 was increased to 100 nM", "setting": "[3]; [8]", "value": "no further enhancement"}, {"measurement": "potentiation of the progestin-mediated increase in cad-11 mRNA", "setting": "[3]; [5]", "value": "potentiate this effect"}]}, {"smiles": "CCN(CC)CCOc1ccc(C(=C(Cl)c2ccccc2)c2ccccc2)cc1", "note": "[clomiphene citrate]", "values": [{"measurement": "AFTER TREATMENT (HSCORE), cad-11 expression in the endometrium", "setting": "[2]; Treatment: Clomiphene Citrate", "value": "4 (positive) HSCORE (2×) and 2 (equivocal) HSCORE and 1 (negative) HSCORE (2×) and 0 (negative) HSCORE and 3 (positive) HSCORE (2×)"}, {"measurement": "effect of treatment on endometrial cad-11 expression", "setting": "[2]", "value": "capable of increasing endometrial cad-11 expression"}, {"measurement": "PREGNANCY OUTCOME", "setting": "[4]; Treatment: Clomiphene Citrate", "value": "successful; also recorded: spontaneous"}]}]}
